Measurements published in US9474755B2, “GLP-1 receptor modulators” (Receptos, Inc., priority 2014, dated 2016).
pEC50: −log10 of the molar value.

The compounds below were run against T1, GLP-1R (Homo sapiens, UniProt P43220) (assay: EC20 GLP-1(9-36) PAM cAMP Assay: dose response of compound in the presence of fixed concentration of GLP-1(9-36)). Details: GLP-1R CRE-bla CHO-K1 cells, in presence of fixed concentration of GLP-1(9-36), 30 min at 37° C.
T1 construct: host or cells: CRE-bla CHO-K1
Assay type: cell-based
Procedure: EC20 GLP-1(9-36) PAM cAMP Assay: Dose Response of Compound in the Presence of Fixed Concentration of GLP-1 (9-36).
GLP-1R CRE-bla CHO-K1 cells cultured in growth medium (DMEM-High glucose, 10% dialyzed FBS, 0.1 mM NEAA, 25 mM Hepes, 100 U/mL penicillin/100 μg/mL streptomycin, 5 μg/mL Blasticidin, 600 μg/mL Hygromycin) were trypsinized and plated in suspension into 384 well white flat bottom plates at 5000 cells/well in 12 μL assay buffer (Hanks Balanced Salt solution, 10 mM Hepes, 0.1% BSA, 10 pH 7.4). A 5× compound dose response curve (12-point) was generated in assay buffer containing 1.5 mM IBMX, 4% DMSO. GLP-1(9-36) was diluted to 4.2 μM in assay buffer containing 1.5 mM IBMX and 4% DMSO. The 5× compound dose response was added (3 μL), followed by 0.5 μL of GLP-1(9-36) and cells were incubated for 30 min at 37° C. Direct detection of cAMP was carried out using DiscoveRx HitHunter cAMP kit according to manufacturer's instructions and luminescence was read using a SpectraMax M5 plate reader. Luminescence was converted to total cAMP using a cAMP standard curve and data was analyzed by non-linear regression to determine the EC50 and Emax.

T1 sequence (P43220 24-463): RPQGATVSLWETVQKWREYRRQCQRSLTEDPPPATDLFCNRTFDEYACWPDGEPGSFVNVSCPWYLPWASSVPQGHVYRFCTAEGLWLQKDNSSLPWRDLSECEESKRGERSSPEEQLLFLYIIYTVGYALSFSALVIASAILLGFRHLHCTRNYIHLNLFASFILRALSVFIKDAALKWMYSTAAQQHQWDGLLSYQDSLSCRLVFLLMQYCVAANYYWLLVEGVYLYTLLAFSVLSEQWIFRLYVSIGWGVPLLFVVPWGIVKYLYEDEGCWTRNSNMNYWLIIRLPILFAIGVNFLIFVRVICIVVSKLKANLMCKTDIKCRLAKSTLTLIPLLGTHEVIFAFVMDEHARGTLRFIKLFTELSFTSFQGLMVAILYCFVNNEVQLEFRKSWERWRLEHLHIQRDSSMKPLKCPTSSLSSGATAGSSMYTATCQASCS
T1 sequence (P01275 100-127 partner limits assumed): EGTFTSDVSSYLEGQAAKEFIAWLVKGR

`CCCCCC1CCC(C2CC=C(c3cnc(-c4ccc(C[C@H](NC(=O)c5ccc(C(C)(C)C)s5)C(=O)N5CC(C(=O)O)C5)cc4)nc3)CC2)CC1` (mixture of isomers) [Compound 4, 1-((2S)-2-(5-(tert-butyl)thiophene-2-carboxamido)-3-(4-(5-(4′-pentyl-[1,1′-bi(cyclohexan)]-3-en-4-yl)pyrimidin-2-yl)phenyl)propanoyl)azetidine-3-carboxylic acid] was tested. Which pEC50 did it give?
The pEC50 was > 6.30.

With `CCCC1CCC(C2CC=C(c3cnc(-c4ccc(C[C@H](NC(=O)c5ccc(C(C)(C)C)s5)C(=O)N5CC(C(=O)O)C5)cc4)nc3)CC2)CC1` (mixture of isomers) [Compound 6, 1-((2S)-2-(5-(tert-butyl)thiophene-2-carboxamido)-3-(4-(5-(4′-propyl-[1,1′-bi(cyclohexan)]-3-en-4-yl)pyrimidin-2-yl)phenyl)propanoyl)azetidine-3-carboxylic acid] as the compound, how does the pEC50 read?
Its pEC50 is > 6.30.

How did the pEC50 turn out when `CCC[C@H]1CC[C@H](C2CC=C(c3cnc(-c4ccc(C[C@H](NC(=O)c5ccc(C(C)(C)C)cc5)C(=O)N5CC(C(=O)O)C5)cc4)nc3)CC2)CC1` (mixture of isomers) [Compound 14, 1-((S)-2-(4-(tert-butyl)benzamido)-3-(4-(5-((1RS,1′s,4′RS)-4′-propyl-[1,1′-bi(cyclohexan)]-3-en-4-yl)pyrimidin-2-yl)phenyl)propanoyl)azetidine-3-carboxylic acid] was run?
Its pEC50 is > 6.30.

How did the pEC50 turn out when `CC(C)(C)c1ccc(C(=O)N[C@@H](Cc2ccc(-c3ncc(C4=CCC([C@H]5CC[C@H](C)CC5)CC4)cn3)cc2)C(=O)N2CC(C(=O)O)C2)s1` (mixture of isomers) [Compound 44, 1-((S)-2-(5-(tert-butyl)thiophene-2-carboxamido)-3-(4-(5-((1RS,1′r,4′RS)-4′-methyl-[1,1′-bi(cyclohexan)]-3-en-4-yl)pyrimidin-2-yl)phenyl)propanoyl)azetidine-3-carboxylic acid] was run?
Its pEC50 is > 6.30.

With `CC[C@H]1CC[C@H](C2CC=C(c3cnc(-c4ccc(C[C@H](NC(=O)c5ccc(C(C)(C)C)s5)C(=O)N5CC(C(=O)O)C5)cc4)nc3)CC2)CC1` (mixture of isomers) [Compound 76, 1-((S)-2-(5-(tert-butyl)thiophene-2-carboxamido)-3-(4-(5-((1RS,1′r,4′RS)-4′-ethyl-[1,1′-bi(cyclohexan)]-3-en-4-yl)pyrimidin-2-yl)phenyl)propanoyl)azetidine-3-carboxylic acid] as the compound, how does the pEC50 read?
Its pEC50 is > 6.30.

`CC[C@H]1CC[C@H](C2CC=C(c3cnc(-c4ccc(C[C@H](NC(=O)c5ccc(C(C)(C)C)s5)C(=O)NS(C)(=O)=O)cc4)nc3)CC2)CC1` (mixture of isomers) [Compound 109, 5-(tert-butyl)-N—((S)-3-(4-(5-((1RS,1′r,4′RS)-4′-ethyl-[1,1′-bi(cyclohexan)]-3-en-4-yl)pyrimidin-2-yl)phenyl)-1-(methylsulfonamido)-1-oxopropan-2-yl)thiophene-2-carboxamide] was tested. Which pEC50 did it give?
Its pEC50 is > 6.30.

With `CC(C)(C)c1ccc(C(=O)N[C@@H](Cc2ccc(-c3ncc(C4=CCC([C@H]5CC[C@H](C)CC5)CC4)cn3)cc2)C(=O)O)s1` (mixture of isomers) [Compound 123, (S)-2-(5-(tert-butyl)thiophene-2-carboxamido)-3-(4-(5-((1RS,1′r,4′RS)-4′-methyl-[1,1′-bi(cyclohexan)]-3-en-4-yl)pyrimidin-2-yl)phenyl)propanoic acid] as the compound, how does the pEC50 read?
The pEC50 was > 6.30.

`CCCC1CCC(C2CC=C(c3cnc(-c4ccc(C[C@H](NC(=O)c5ccc(C(C)(C)C)s5)C(=O)N[C@H](C)C(=O)O)cc4)nc3)CC2)CC1` (stereo partly drawn) [Compound 1, ((2S)-2-(5-(tert-butyl)thiophene-2-carboxamido)-3-(4-(5-(4′-propyl-[1,1′-bi(cyclohexan)]-3-en-4-yl)pyrimidin-2-yl)phenyl)propanoyl)-D-alanine] was tested. Which pEC50 did it give?
The pEC50 was > 6.30.

`CCCCCC1CCC(C2CC=C(c3cnc(-c4ccc(C[C@H](NC(=O)c5ccc(C(C)(C)C)s5)C(=O)N[C@H](C)C(=O)O)cc4)nc3)CC2)CC1` (some centres unmarked) [Compound 2] was tested. Which pEC50 did it give?
The pEC50 was 5.00 to 5.30.

How did the pEC50 turn out when `CCCCCC1CCC(C2CC=C(c3cnc(-c4ccc(C[C@H](NC(=O)c5ccc(C(C)(C)C)s5)C(=O)N5CC[C@H](C(=O)O)C5)cc4)nc3)CC2)CC1` (some centres unmarked) [Compound 3] was run?
The pEC50 was > 6.30.

With `CCCCCC1CCC(C2CC=C(c3cnc(-c4ccc(C[C@H](NC(=O)c5ccc(C(C)(C)C)s5)C(=O)N5CCC[C@H]5C(=O)O)cc4)nc3)CC2)CC1` (some centres unmarked) [Compound 5] as the compound, how does the pEC50 read?
Its pEC50 is 5.60 to 6.30.

`CCCC1CCC(C2CC=C(c3cnc(-c4ccc(C[C@H](NC(=O)c5ccc(C(C)(C)C)s5)C(=O)N5CC[C@H](C(=O)O)C5)cc4)nc3)CC2)CC1` (stereo partly drawn) [Compound 7, (3S)-1-((2S)-2-(5-(tert-butyl)thiophene-2-carboxamido)-3-(4-(5-(4′-propyl-[1,1′-bi(cyclohexan)]-3-en-4-yl)pyrimidin-2-yl)phenyl)propanoyl)pyrrolidine-3-carboxylic acid] was tested. Which pEC50 did it give?
The pEC50 was > 6.30.

`CCCC1CCC(C2CC=C(c3cnc(-c4ccc(C[C@H](NC(=O)c5ccc(C(C)(C)C)s5)C(=O)N5CCC[C@H]5C(=O)O)cc4)nc3)CC2)CC1` (some centres unmarked) [Compound 8] was tested. Which pEC50 did it give?
The pEC50 was > 6.30.

With `CCCC1CCC(C2CC=C(c3cnc(-c4ccc(C[C@H](NC(=O)c5ccc(C(C)(C)C)s5)C(=O)O)cc4)nc3)CC2)CC1` (some centres unmarked) [Compound 9] as the compound, how does the pEC50 read?
Its pEC50 is 5.60 to 6.30.

With `C[C@@H](NC(=O)[C@H](Cc1ccc(-c2ncc(C3=CCC(c4ccccc4)CC3)cn2)cc1)NC(=O)c1ccc(C(C)(C)C)s1)C(=O)O` (some centres unmarked) [Compound 10] as the compound, how does the pEC50 read?
The pEC50 was > 6.30.

How did the pEC50 turn out when `CC(C)(C)c1ccc(C(=O)N[C@@H](Cc2ccc(-c3ncc(C4=CCC(c5ccccc5)CC4)cn3)cc2)C(=O)N2CC(C(=O)O)C2)s1` (some centres unmarked) [Compound 11] was run?
The pEC50 was > 6.30.

How did the pEC50 turn out when `CCCC1CCC(C2CCC(c3cnc(-c4ccc(C[C@H](NC(=O)c5ccc(C(C)C)cc5)C(=O)N5CC(C(=O)O)C5)cc4)nc3)CC2)CC1` (some centres unmarked) [Compound 12] was run?
Its pEC50 is 5.30 to 5.60.

How did the pEC50 turn out when `CCCC1CCC(C2CC=C(c3cnc(-c4ccc(C[C@H](NC(=O)c5ccc(C(C)C)cc5)C(=O)N5CC(C(=O)O)C5)cc4)nc3)CC2)CC1` (some centres unmarked) [Compound 13] was run?
Its pEC50 is > 6.30.

How did the pEC50 turn out when `CCCC1CCC(C2CC=C(c3cnc(-c4ccc(C[C@H](NC(=O)c5cnc(C(C)(C)C)nc5)C(=O)N5CC(C(=O)O)C5)cc4)nc3)CC2)CC1` (some centres unmarked) [Compound 15] was run?
The pEC50 was > 6.30.

With `CCCC1CCC(C2CCC(c3cnc(-c4ccc(C[C@H](NC(=O)c5ccc(C(C)C)s5)C(=O)N5CC(C(=O)O)C5)cc4)nc3)CC2)CC1` (some centres unmarked) [Compound 16] as the compound, how does the pEC50 read?
The pEC50 was 5.60 to 6.30.

`CCCC1CCC(C2CC=C(c3cnc(-c4ccc(C[C@H](NC(=O)c5ccc(C(C)C)s5)C(=O)N5CC(C(=O)O)C5)cc4)nc3)CC2)CC1` (some centres unmarked) [Compound 17] was tested. Which pEC50 did it give?
The pEC50 was > 6.30.

With `CCCC1CCC(C2CCC(c3cnc(-c4ccc(C[C@H](NC(=O)c5cnn(C(C)(C)C)c5)C(=O)N5CC(C(=O)O)C5)cc4)nc3)CC2)CC1` (some centres unmarked) [Compound 18] as the compound, how does the pEC50 read?
The pEC50 was 5.00 to 5.30.

How did the pEC50 turn out when `CCCC1CCC(C2CC=C(c3cnc(-c4ccc(C[C@H](NC(=O)c5cnn(C(C)(C)C)c5)C(=O)N5CC(C(=O)O)C5)cc4)nc3)CC2)CC1` (some centres unmarked) [Compound 19] was run?
Its pEC50 is 5.60 to 6.30.

With `CCCC1CCC(C2CCC(c3cnc(-c4ccc(C[C@H](NC(=O)c5ccc(CC)cc5)C(=O)N5CC(C(=O)O)C5)cc4)nc3)CC2)CC1` (some centres unmarked) [Compound 20] as the compound, how does the pEC50 read?
The pEC50 was 5.00 to 5.30.

`CCCC1CCC(C2CC=C(c3cnc(-c4ccc(C[C@H](NC(=O)c5ccc(CC)cc5)C(=O)N5CC(C(=O)O)C5)cc4)nc3)CC2)CC1` (some centres unmarked) [Compound 21] was tested. Which pEC50 did it give?
Its pEC50 is > 6.30.

`CCCc1ccc(C(=O)N[C@@H](Cc2ccc(-c3ncc(C4=CCC(C5CCC(CCC)CC5)CC4)cn3)cc2)C(=O)N2CC(C(=O)O)C2)cc1` (some centres unmarked) [Compound 22] was tested. Which pEC50 did it give?
The pEC50 was > 6.30.

How did the pEC50 turn out when `CCCC1CCC(C2CC=C(c3cnc(-c4ccc(C[C@H](NC(=O)c5ccc(CC(C)C)cc5)C(=O)N5CC(C(=O)O)C5)cc4)nc3)CC2)CC1` (some centres unmarked) [Compound 23] was run?
Its pEC50 is > 6.30.

How did the pEC50 turn out when `CCCC1CCC(C2CC=C(c3cnc(-c4ccc(C[C@H](NC(=O)c5ccc(C6CC6)cc5)C(=O)N5CC(C(=O)O)C5)cc4)nc3)CC2)CC1` (some centres unmarked) [Compound 24] was run?
Its pEC50 is > 6.30.

How did the pEC50 turn out when `CCCC1CCC(C2CCC(c3cnc(-c4ccc(C[C@H](NC(=O)c5ccc(C6(C)CC6)cc5)C(=O)N5CC(C(=O)O)C5)cc4)nc3)CC2)CC1` (some centres unmarked) [Compound 25] was run?
The pEC50 was 5.30 to 5.60.

With `CCCC1CCC(C2CC=C(c3cnc(-c4ccc(C[C@H](NC(=O)c5ccc(C6(C)CC6)cc5)C(=O)N5CC(C(=O)O)C5)cc4)nc3)CC2)CC1` (some centres unmarked) [Compound 26] as the compound, how does the pEC50 read?
The pEC50 was > 6.30.

With `CCCC1CCC(C2CC=C(c3cnc(-c4ccc(C[C@H](NC(=O)c5ccc(OC(C)C)cc5)C(=O)N5CC(C(=O)O)C5)cc4)nc3)CC2)CC1` (some centres unmarked) [Compound 27] as the compound, how does the pEC50 read?
The pEC50 was > 6.30.

`CCCC1CCC(C2CCC(c3cnc(-c4ccc(C[C@H](NC(=O)c5ccc(C(C)(C)C)nc5)C(=O)N5CC(C(=O)O)C5)cc4)nc3)CC2)CC1` (some centres unmarked) [Compound 28] was tested. Which pEC50 did it give?
Its pEC50 is 5.00 to 5.30.

How did the pEC50 turn out when `CCCC1CCC(C2CC=C(c3cnc(-c4ccc(C[C@H](NC(=O)c5ccc(C(C)(C)C)nc5)C(=O)N5CC(C(=O)O)C5)cc4)nc3)CC2)CC1` (some centres unmarked) [Compound 29] was run?
Its pEC50 is 5.60 to 6.30.

With `CCCC1CCC(C2CC=C(c3cnc(-c4ccc(C[C@H](NC(=O)c5ccc(C(C)=O)cc5)C(=O)N5CC(C(=O)O)C5)cc4)nc3)CC2)CC1` (some centres unmarked) [Compound 30] as the compound, how does the pEC50 read?
Its pEC50 is 5.60 to 6.30.

`CCCC1CCC(C2CC=C(c3cnc(-c4ccc(C[C@H](NC(=O)c5ccc(CC)s5)C(=O)N5CC(C(=O)O)C5)cc4)nc3)CC2)CC1` (stereo partly drawn) [Compound 31, 1-((S)-2-(5-ethylthiophene-2-carboxamido)-3-(4-(5-((1RS,1′s,4′RS)-4′-propyl-[1,1′-bi(cyclohexan)]-3-en-4-yl)pyrimidin-2-yl)phenyl)propanoyl)azetidine-3-carboxylic acid] was tested. Which pEC50 did it give?
Its pEC50 is > 6.30.
